Laboratory results as given in the supplement of paper PMC8741786.
≈ marks a conversion by molar mass, not a printed value.

Assays:
Neisseria gonorrhoeae = experiment: minimum inhibitory concentration (ETEST); settings: isolate id (sample isolate): 19113052_3; population: MSM; antibiotic use in previous 6 months: No
Procedure: (§1)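 Oropharyngeal Neisseria isolates from MSM and employees in Belgium were identified to species by MALDI-TOF MS. MICs of azithromycin, ceftriaxone and ciprofloxacin were determined by ETEST on GC agar after 24 h at 36.5 °C and 5-7% CO2, in mg/L. Values beyond the strip range are reported as >256 (azithromycin) or <0.016 (ceftriaxone); isolates that did not grow are NA.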

[1] = system: Neisseria subflava/flavescens/perflava; experiment: minimum inhibitory concentration (ETEST)
Procedure: as §1

O=C(O)c1cn(C2CC2)c2cc(N3CCNCC3)c(F)cc2c1=O [ciprofloxacin]
Settings | minimum inhibitory concentration [mg/L]
Neisseria gonorrhoeae | 2 (≈ 6.04 µM)

[1]
Settings | minimum inhibitory concentration [mg/L]
isolate id (sample isolate): 19041762_1, population: MSM, antibiotic use in previous 6 months: Yes | 1.5 (≈ 4.53 µM)
isolate id (sample isolate): 19041762_1.1, population: MSM, antibiotic use in previous 6 months: Yes | 3 (≈ 9.05 µM)
isolate id (sample isolate): 19041780_1, population: MSM, antibiotic use in previous 6 months: Yes | 0.25 (≈ 0.754 µM)
isolate id (sample isolate): 19042150_1, population: MSM, antibiotic use in previous 6 months: Yes | 0.25 (≈ 0.754 µM)
isolate id (sample isolate): 19042150_3, population: MSM, antibiotic use in previous 6 months: Yes | 0.032 (≈ 0.0966 µM)
isolate id (sample isolate): 19042756_1, population: MSM, antibiotic use in previous 6 months: Yes | 1 (≈ 3.02 µM)
isolate id (sample isolate): 19042756_2, population: MSM, antibiotic use in previous 6 months: Yes | 0.75 (≈ 2.26 µM)
isolate id (sample isolate): 19043201_1.1, population: MSM, antibiotic use in previous 6 months: No | 0.25 (≈ 0.754 µM)
isolate id (sample isolate): 19043201_2.1, population: MSM, antibiotic use in previous 6 months: No | 0.38 (≈ 1.15 µM)
isolate id (sample isolate): 19043201_3, population: MSM, antibiotic use in previous 6 months: No | 0.25 (≈ 0.754 µM)
isolate id (sample isolate): 19043274_3, population: MSM, antibiotic use in previous 6 months: Yes | 0.25 (≈ 0.754 µM)
isolate id (sample isolate): 19050474_1, population: MSM, antibiotic use in previous 6 months: No | 0.25 (≈ 0.754 µM)
isolate id (sample isolate): 19050514_1, population: MSM, antibiotic use in previous 6 months: Yes | 0.5 (≈ 1.51 µM)
isolate id (sample isolate): 19050949_1, population: MSM, antibiotic use in previous 6 months: No | 0.016 (≈ 0.0483 µM)
isolate id (sample isolate): 19050949_2, population: MSM, antibiotic use in previous 6 months: No | 0.38 (≈ 1.15 µM)
isolate id (sample isolate): 19050949_2.1, population: MSM, antibiotic use in previous 6 months: No | 0.38 (≈ 1.15 µM)
isolate id (sample isolate): 19051904_2, population: MSM, antibiotic use in previous 6 months: Yes | 0.38 (≈ 1.15 µM)
isolate id (sample isolate): 19051904_3, population: MSM, antibiotic use in previous 6 months: Yes | 0.38 (≈ 1.15 µM)
isolate id (sample isolate): 19052394_1, population: MSM, antibiotic use in previous 6 months: Yes | 0.19 (≈ 0.573 µM)
isolate id (sample isolate): 19052394_1.1, population: MSM, antibiotic use in previous 6 months: Yes | 0.19 (≈ 0.573 µM)
isolate id (sample isolate): 19060089_1, population: MSM, antibiotic use in previous 6 months: Yes | 0.38 (≈ 1.15 µM)
isolate id (sample isolate): 19062994_1, population: MSM, antibiotic use in previous 6 months: Yes | 0.016 (≈ 0.0483 µM)
isolate id (sample isolate): Co000761_2, population: general population, antibiotic use in previous 6 months: No | 0.012 (≈ 0.0362 µM)
isolate id (sample isolate): Co000761_3, population: general population, antibiotic use in previous 6 months: No | 0.75 (≈ 2.26 µM)
isolate id (sample isolate): Co000761_5, population: general population, antibiotic use in previous 6 months: No | 0.38 (≈ 1.15 µM)
isolate id (sample isolate): Co000761_6, population: general population, antibiotic use in previous 6 months: No | 0.008 (≈ 0.0241 µM)
isolate id (sample isolate): Co000762_3, population: general population, antibiotic use in previous 6 months: No | 0.016 (≈ 0.0483 µM)
isolate id (sample isolate): Co000762_4, population: general population, antibiotic use in previous 6 months: No | 0.016 (≈ 0.0483 µM)
isolate id (sample isolate): Co000763_2, population: general population, antibiotic use in previous 6 months: No | 0.008 (≈ 0.0241 µM)
isolate id (sample isolate): Co000764_1, population: general population, antibiotic use in previous 6 months: No | 0.032 (≈ 0.0966 µM)
isolate id (sample isolate): Co000764_2, population: general population, antibiotic use in previous 6 months: No | 0.047 (≈ 0.142 µM)
isolate id (sample isolate): Co000765_2, population: general population, antibiotic use in previous 6 months: No | 0.023 (≈ 0.0694 µM)
isolate id (sample isolate): Co000765_3, population: general population, antibiotic use in previous 6 months: No | 0.016 (≈ 0.0483 µM)
isolate id (sample isolate): Co000765_4, population: general population, antibiotic use in previous 6 months: No | 0.012 (≈ 0.0362 µM)
isolate id (sample isolate): Co000766_1, population: general population, antibiotic use in previous 6 months: No | 0.047 (≈ 0.142 µM)
isolate id (sample isolate): Co000766_3, population: general population, antibiotic use in previous 6 months: No | 0.008 (≈ 0.0241 µM)
isolate id (sample isolate): Co000767_1, population: general population, antibiotic use in previous 6 months: No | 0.008 (≈ 0.0241 µM)
isolate id (sample isolate): Co000767_2, population: general population, antibiotic use in previous 6 months: No | 1 (≈ 3.02 µM)
isolate id (sample isolate): Co000767_4, population: general population, antibiotic use in previous 6 months: No | 0.016 (≈ 0.0483 µM)
isolate id (sample isolate): Co000767_5, population: general population, antibiotic use in previous 6 months: No | 0.38 (≈ 1.15 µM)
isolate id (sample isolate): Co000767_6, population: general population, antibiotic use in previous 6 months: No | 0.006 (≈ 0.0181 µM)
isolate id (sample isolate): Co000767_7, population: general population, antibiotic use in previous 6 months: No | 0.38 (≈ 1.15 µM)
isolate id (sample isolate): Co000768_1, population: general population, antibiotic use in previous 6 months: No | 0.006 (≈ 0.0181 µM)
isolate id (sample isolate): Co000768_2, population: general population, antibiotic use in previous 6 months: No | 0.008 (≈ 0.0241 µM)
isolate id (sample isolate): Co000769_1, population: general population, antibiotic use in previous 6 months: No | 0.5 (≈ 1.51 µM)
isolate id (sample isolate): Co000769_2, population: general population, antibiotic use in previous 6 months: No | 0.008 (≈ 0.0241 µM)
isolate id (sample isolate): Co000769_4, population: general population, antibiotic use in previous 6 months: No | 0.5 (≈ 1.51 µM)
isolate id (sample isolate): Co000770_2, population: general population, antibiotic use in previous 6 months: No | 0.25 (≈ 0.754 µM)
isolate id (sample isolate): Co000770_4, population: general population, antibiotic use in previous 6 months: No | 0.5 (≈ 1.51 µM)
